Paper PMC5349447, “Applying a high-throughput fluorescence polarization assay for the discovery of chemical probes blocking La:RNA interactions in vitro and in cells” (PLoS ONE, 2017)

Tested on: T1, gfp-tagged La-WT association with cellular mRNAs
T1 construct: full length La (La wildtype, La-WT); expressed in transfected cells
Assay: RNA immunoprecipitation (RIP) with RT-qPCR in HEK293 expressing gfp-tagged La
Format: cell-based, human
Conditions: 150 μM, HEK293 gfpLa
Experimental: RIP experiments were performed with HEK293 stably expressing gfp (green fluorescent protein)-tagged La wiltype (La-WT) protein as described recently. The compound C2:01 was dissolved in 100% DMSO to a concentration of 100 mM. Subsequently, the compound was diluted in media to 10 mM (10% DMSO) and 1 mM (1% DMSO). The 1 mM stock was diluted 6.7-fold in culture media to reach a final concentration of 150 μM (0.15% DMSO). Cells were washed with ice-cold 1x PBS, and lysed by incubating with lysis buffer (20 mM Tris-HCl, (pH 7.4), 150 mM NaCl, 1% IGEPAL CA-630, 10% glycerol, 1 mM EDTA, 50mM NaF, and 1 mM DTT, supplemented with RNase inhibitors and protease inhibitors) on tube rotator for 15 min at 4°C. The cell lysate was sonicated (3 sec for 10 times at power 3, Sonic Dismembrator Model 100) and cleared by centrifugation at 14,000 g at 4°C for 20 min. The cleared lysate was incubated with anti-gfp magnetic beads (MBL International) on the orbital rotor at 4°C overnight. The beads were washed four times with wash buffer I (50 mM Tris-HCl (pH 7.4), 300 mM NaCl, 0.05% IGEPAL CA-630, 20 mM EDTA, 1 mM DTT, and 1 mM MgCl2) and three times with wash buffer II (50 mM Tris-HCl (pH 7.4), 300 mM NaCl, 0.05% IGEPAL CA-630, 20 mM EDTA, 1 mM DTT, 1 mM MgCl2 and 1 M urea)[29].
For preparation of the RNA, the beads were resuspended in wash buffer II and RNA was extracted by applying the Phenol-Chloroform-Isoamyl alcohol method. […] The RNA pellet was dissolved in RNase-DNase-free H2O and quantitated by NanoDrop spectrophotometer and subjected to RT-qPCR analysis. By RT-qPCR the La-specific RIP-RNA pellets (gfp-tagged La) were tested for the presence of Bcl2, CCND1, L37, L22 and S6 mRNA and none of those were detected in the control RIP experiments (gfp alone). The enrichment was calculated by establishing standard curves for specific mRNAs using the RT^2 qPCR Primer Assays (Qiagen): Bcl2 (PPH00079B), CCND1 (PPH00128F), L37 (QT00014105), L22 (QT00079982), S6 (QT02505328) as described recently. […]

Cc1ccc(C(=O)c2ccccc2C(=O)O)c(O)c1 [C2.01, 2-(2-hydroxy-4-methylbenzoyl)benzoic acid]
binding of La to Bcl2 mRNA in cells (RIP): selectively impaired | binding of La to CCND1 mRNA in cells (RIP): selectively impaired | binding of La to TOP mRNAs encoding RPL37, RPL5 and RPSK6 in cells (RIP): no effect
